Source: ChEMBL document CHEMBL5260804 (ACS Med Chem Lett, 2017)

How the values were obtained:
[1] = target: Matrix protein 2 (Influenza A virus) (UniProt P06821); details: A/Udorn/72 (H3N2)
Description: Binding affinity to C-terminal amidated influenza A virus A/Udorn/72 (H3N2) M2 transmembrane domain (22 to 46 residues) in DPC micelles at pH 8 assessed as change in enthalpy by ITC analysis

[2] = target: Matrix protein 2 (Influenza A virus) (UniProt P06821); experiment: Inhibition of full length influenza A virus A/Udorn/72 (H3N2) M2 expressed in Xenopus laevis oocytes assessed as inhibition of channel current at 100 uM measured after 5 mins by two-electrode voltage clamp assay relative to control; type: cell-based; details: Oocyte
[3] = target: Matrix protein 2 (Influenza A virus) (UniProt P06821); details: A/Udorn/72 (H3N2); remark: listed apart in the source
Description: Binding affinity to C-terminal amidated influenza A virus A/Udorn/72 (H3N2) M2 transmembrane domain (22 to 46 residues) in DPC micelles at pH 8 assessed as gibbs free energy change by ITC analysis

Matrix protein 2 = Matrix protein 2 (Influenza A virus, UniProt P06821)
Matrix protein 2, sequence (P06821 whole entry, the tested form may be a part): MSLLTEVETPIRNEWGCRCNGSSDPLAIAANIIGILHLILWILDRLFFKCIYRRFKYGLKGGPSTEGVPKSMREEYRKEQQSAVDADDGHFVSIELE
Description: Binding affinity to C-terminal amidated influenza A virus A/Udorn/72 (H3N2) M2 transmembrane domain (22 to 46 residues) in DPC micelles at pH 8 assessed as dissociation constant by ITC analysis

[4] = target: Matrix protein 2 (Influenza A virus) (UniProt P06821); experiment: Binding affinity to C-terminal amidated influenza A virus A/Udorn/72 (H3N2) M2 transmembrane domain (22 to 46 residues) in DPC micelles at pH 8 assessed as change in entropy by ITC analysis
Influenza A virus = experiment: Antiviral activity against amantadine-sensitive influenza A virus A/Udorn/72 (H3N2) infected in MDCK cells assessed as inhibition of virus-induced cytopathic effect incubated for 48 hrs by crystal violet/neutral red staining based assay; type: functional, organism-based
[5] = target: Matrix protein 2 (Influenza A virus) (UniProt P06821); experiment: Inhibition of full length influenza A virus A/Udorn/72 (H3N2) M2 expressed in Xenopus laevis oocytes assessed as inhibition of channel current at 100 uM measured after 2 mins by two-electrode voltage clamp assay relative to control; type: cell-based; details: Oocyte

Matrix protein 2 (Influenza A virus), sequence (P06821 whole entry, the tested form may be a part): as above

SMILES	deltaH [1] [kcal/mol]	inhibition [2] [%]	deltaG [3] [kcal/mol]	Kd (Matrix protein 2) [µM]	-TdeltaS [4] [kcal/mol]	IC50 (Influenza A virus) [µM]	inhibition [5] [%]
CC(C)(N)C12CC3CC(CC(C3)C1)C2	-4.19	96	-9.3	0.13	-5.12	0.04	90
CC(N)C12CC3CC(CC(C3)C1)C2 (racemic) [RIMANTADINE]	-7.6	96	–	–	-1.04	0.05	96
NC12CC3CC(CC(C3)C1)C2 [AMANTADINE]	-6.66	95	-7.77	–	-1.11	0.33	–
C[C@@H](N)C12CC3CC(CC(C3)C1)C2	-7.54	95	-8.97	–	-1.42	0.05	93
C[C@H](N)C12CC3CC(CC(C3)C1)C2	-7.73	96	–	–	-1.15	0.06	95
